Target: S1P5 (Homo sapiens, UniProt Q9H228)
Experiment: [35S]-GTPγS binding assay (S1P5 agonism), CHO cell membranes
Type: biochemical
Settings: membranes of CHO cells expressing recombinant S1P5 receptors, measure of S1P5 agonism
Procedure: CHO cells expressing recombinant S1P5 receptors were cultured in 500 cm^2 culture trays and, once confluent, rinsed and detached with cell-lifting buffer (10 mM HEPES, 154 mM NaCl, 6.85 mM EDTA, pH 7.4). Cells were then pelleted by centrifugation, resuspended, and homogenized in membrane preparation buffer (10 mM HEPES and 10 mM EDTA, pH 7.4) using a Polytron PT 1200E homogenizer (Kinematica, Luzern, Switzerland). Cellular proteins were pelleted by centrifugation at 48,000×g at 4° C. for 30 minutes. The resulting supernatant was discarded, and the pellet was re-suspended again in membrane preparation buffer, homogenized for a second time, and then centrifuged again as described above. The final cellular protein pellet was suspended in ice cold resuspension buffer (10 mM HEPES and 0.1 mM EDTA, pH 7.4), divided into aliquots, and stored at −80° C. until use.
Functional binding assays for [^35S]-GTPγS were performed in 96-well non-binding surface plates with a final volume of 200 μL. The test compounds were serially diluted in DMSO and added to assay plates using a Tecan D300E digital printer with a total volume of […]. The control sphingosine-1-phosphate (S1P) was prepared separately by preparing a 400 μM stock solution from a 100 nmol pellet of S1P in 10 mM Na2CO3 with 2% […]. The serial dilution of S1P was done using complete assay buffer (20 mM HEPES, 10 mM MgCl2, 100 mM NaCl, 1 mM EDTA, 0.1% fatty acid free bovine serum albumin (BSA), and 30 μg/mL saponin, pH 7.4) and transferred to wells already containing 0.4 μL DMSO. All the wells were then loaded to a total volume of 40 μL of complete assay buffer, except the non-specific binding (NSB) wells. For NSB wells, 40 μL/well of 50 μM GTPγS (Sigma Aldrich, cat #G8634, St. Louis, MO) was added to wells containing 0.4 μL of DMSO. The assay was started by the addition of 120 μL/well of CHO-SlP receptor membrane solution containing 40 μg/mL of membrane protein, 16.67 μM guanosine diphosphate (GDP; Sigma Aldrich, cat #G7127, St. Louis, MO), and 2.5 mg/mL of WGA PVT SPA beads in complete buffer. Assay plates were then sealed and incubated at room temperature with gentle agitation for 30 minutes. Next, 40 µL/well of 1 nM of [^35S]-GTPγS (PerkinElmer, cat #NEG030X25OUC, Waltham, MA) in basic assay buffer (20 mM HEPES, 10 mM MgCl2, 100 mM NaCl, and 1 mM EDTA, pH7.4) was added to the assay plates to yield a final concentration of 200 pM and the plates were further incubated for 40 minutes at room temperature with gentle agitation. The assay was terminated by centrifugation of the plates at 1000 rpm for 3 minutes using an Eppendorf 5810R centrifuge (Eppendorf, Hamburg, Germany) and G protein bound radioactivity was quantitated using a MicroBeta2 microplate scintillation counter (PerkinElmer, Waltham, MA). As G protein bound radioactivity directly correlates to receptor activation and coupling to the G protein, this assay is a measure of S1P5 agonism.

Chain of S1P5 (Q9H228 whole entry, species assumed): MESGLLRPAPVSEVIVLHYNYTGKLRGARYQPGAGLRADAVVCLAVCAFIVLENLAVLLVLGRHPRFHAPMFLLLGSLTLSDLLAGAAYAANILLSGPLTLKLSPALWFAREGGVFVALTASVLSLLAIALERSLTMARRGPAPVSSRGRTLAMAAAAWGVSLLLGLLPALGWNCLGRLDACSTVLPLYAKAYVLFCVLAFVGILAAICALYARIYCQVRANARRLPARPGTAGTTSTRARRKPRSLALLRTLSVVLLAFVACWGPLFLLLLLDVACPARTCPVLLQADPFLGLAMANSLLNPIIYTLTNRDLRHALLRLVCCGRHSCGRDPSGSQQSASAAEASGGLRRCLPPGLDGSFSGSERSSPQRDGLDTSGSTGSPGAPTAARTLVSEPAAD

EC50 [nM]	Structure (SMILES)
10 to 100	O=C(O)[C@H]1CCN(C2CCc3cc(OCc4c(Cl)cccc4Cl)ccc32)C1 (single isomer, unassigned) [Compound 24a]
1 to 10	O=C(O)[C@H]1CCN(C2CCc3cc(OCc4c(Cl)cccc4Cl)ccc32)C1 (single isomer, unassigned) [Compound 24b]
1 to 10	O=C(O)[C@@H]1CCN(C2CCc3cc(OCc4c(Cl)cccc4Cl)ccc32)C1 (single isomer, unassigned) [Compound 25a]
1 to 10	O=C(O)[C@@H]1CCN(C2CCc3cc(OCc4c(Cl)cccc4Cl)ccc32)C1 (single isomer, unassigned) [Compound 25b]
10 to 100	O=C(O)C1CCN(C2CCc3cc(OCc4cccc(C(F)(F)F)c4)ccc32)CC1 (single isomer, unassigned) [Compound 26a, 1-(5-((3-(trifluoromethyl)benzyl)oxy)-2,3-dihydro-1H-inden-1-yl)piperidine-4-carboxylic acid]
100 to 1000	O=C(O)C1CCN(C2CCc3cc(OCc4cccc(C(F)(F)F)c4)ccc32)CC1 (single isomer, unassigned) [Compound 26b, 1-(5-((3-(trifluoromethyl)benzyl)oxy)-2,3-dihydro-1H-inden-1-yl)piperidine-4-carboxylic acid]
1 to 10	Cc1ccc(COc2ccc3c(c2)CCC3N2CC(C(=O)O)C2)cc1Cl (centres unmarked) [Compound 1, 1-(5-((3-chloro-4-methylbenzyl)oxy)-2,3-dihydro-1H-inden-1-yl)azetidine-3-carboxylic acid]
10 to 100	Cc1ccc(COc2ccc3c(c2)CCC3N2CC(C(=O)O)C2)cc1C(F)(F)F (centres unmarked) [Compound 2, 1-(5-((4-methyl-3-(trifluoromethyl)benzyl)oxy)-2,3-dihydro-1H-inden-1-yl)azetidine-3-carboxylic acid]
1 to 10	Cc1ccc(COc2ccc3c(c2)CCC3N2CC(C(=O)O)C2)c(Cl)c1 (centres unmarked) [Compound 3, 1-(5-((2-chloro-4-methylbenzyl)oxy)-2,3-dihydro-1H-inden-1-yl)azetidine-3-carboxylic acid]
10 to 100	Cc1ccc(COc2ccc3c(c2)CCC3N2CC(C(=O)O)C2)c(F)c1 (centres unmarked) [Compound 4, 1-(5-((2-fluoro-4-methylbenzyl)oxy)-2,3-dihydro-1H-inden-1-yl)azetidine-3-carboxylic acid]
1 to 10	CC(C)Oc1ccc(COc2ccc3c(c2)CCC3N2CC(C(=O)O)C2)cc1C(F)(F)F (centres unmarked) [Compound 5, 1-(5-((4-isopropoxy-3-(trifluoromethyl)benzyl)oxy)-2,3-dihydro-1H-inden-1-yl)azetidine-3-carboxylic acid]
10 to 100	CC(C)Oc1ccc(COc2ccc3c(c2)CCC3N2CC(C(=O)O)C2)cc1C#N (centres unmarked) [Compound 6, 1-(5-((3-cyano-4-isopropoxybenzyl)oxy)-2,3-dihydro-1H-inden-1-yl)azetidine-3-carboxylic acid]
10 to 100	O=C(O)C1CN(C2CCc3cc(OCc4ccc(C5CC5)cc4F)ccc32)C1 (centres unmarked) [Compound 7, 1-(5-((4-cyclopropyl-2-fluorobenzyl)oxy)-2,3-dihydro-1H-inden-1-yl)azetidine-3-carboxylic acid]
10 to 100	O=C(O)C1CN(C2CCc3cc(OCc4ccc(C5CC5)cc4Cl)ccc32)C1 (centres unmarked) [Compound 8, 1-(5-((2-chloro-4-cyclopropylbenzyl)oxy)-2,3-dihydro-1H-inden-1-yl)azetidine-3-carboxylic acid]
1 to 10	O=C(O)C1CN(C2CCc3cc(OCc4ccc(C5CC5)c(C(F)(F)F)c4)ccc32)C1 (centres unmarked) [Compound 9, 1-(5-((4-cyclopropyl-3-(trifluoromethyl)benzyl)oxy)-2,3-dihydro-1H-inden-1-yl)azetidine-3-carboxylic acid]
10 to 100	O=C(O)C1CN(C2CCc3cc(OCc4ccc(C5CC5)c(Cl)c4)ccc32)C1 (centres unmarked) [Compound 10, 1-(5-((3-chloro-4-cyclopropylbenzyl)oxy)-2,3-dihydro-1H-inden-1-yl)azetidine-3-carboxylic acid]

EC50 [nM]	Structure (SMILES)
10 to 100	O=C(O)C1CN(C2CCc3cc(OCc4ccccc4F)ccc32)C1 (centres unmarked) [Compound 11, 1-(5-((2-fluorobenzyl)oxy)-2,3-dihydro-1H-inden-1-yl)azetidine-3-carboxylic acid]
10 to 100	O=C(O)C1CN(C2CCc3cc(OCc4cccc(F)c4)ccc32)C1 (centres unmarked) [Compound 12, 1-(5-((3-fluorobenzyl)oxy)-2,3-dihydro-1H-inden-1-yl)azetidine-3-carboxylic acid]
10 to 100	O=C(O)C1CN(C2CCc3cc(OCc4ccc(F)cc4)ccc32)C1 (centres unmarked) [Compound 13, 1-(5-((4-fluorobenzyl)oxy)-2,3-dihydro-1H-inden-1-yl)azetidine-3-carboxylic acid]
10 to 100	O=C(O)C1CN(C2CCc3cc(OCc4ccc(F)cc4F)ccc32)C1 (centres unmarked) [Compound 14, 1-(5-((2,4-difluorobenzyl)oxy)-2,3-dihydro-1H-inden-1-yl)azetidine-3-carboxylic acid]
10 to 100	O=C(O)C1CN(C2CCc3cc(OCc4cc(F)ccc4F)ccc32)C1 (centres unmarked) [Compound 15, 1-(5-((2,5-difluorobenzyl)oxy)-2,3-dihydro-1H-inden-1-yl)azetidine-3-carboxylic acid]
10 to 100	O=C(O)C1CN(C2CCc3cc(OCc4ccc(F)c(Cl)c4)ccc32)C1 (centres unmarked) [Compound 16, 1-(5-((3-chloro-4-fluorobenzyl)oxy)-2,3-dihydro-1H-inden-1-yl)azetidine-3-carboxylic acid]
1 to 10	O=C(O)C1CN(C2CCc3cc(OCc4cc(F)c(F)cc4F)ccc32)C1 (centres unmarked) [Compound 17, 1-(5-((2,4,5-trifluorobenzyl)oxy)-2,3-dihydro-1H-inden-1-yl)azetidine-3-carboxylic acid]
10 to 100	O=C(O)C1CN(C2CCc3cc(OCc4cc(F)cc(F)c4F)ccc32)C1 (centres unmarked) [Compound 18, 1-(5-((2,3,5-trifluorobenzyl)oxy)-2,3-dihydro-1H-inden-1-yl)azetidine-3-carboxylic acid]
10 to 100	O=C(O)C1CN(C2CCc3cc(OCc4ccc(F)c(F)c4)ccc32)C1 (centres unmarked) [Compound 19, 1-(5-((3,4-difluorobenzyl)oxy)-2,3-dihydro-1H-inden-1-yl)azetidine-3-carboxylic acid]
10 to 100	O=C(O)C1CN(C2CCc3cc(OCc4cccc(I)c4)ccc32)C1 (centres unmarked) [Compound 20, 1-(5-((3-iodobenzyl)oxy)-2,3-dihydro-1H-inden-1-yl)azetidine-3-carboxylic acid]
100 to 1000	O=C(O)C1CN(C2CCc3cc(OCc4ccc(I)cc4)ccc32)C1 (centres unmarked) [Compound 21, 1-(5-((4-iodobenzyl)oxy)-2,3-dihydro-1H-inden-1-yl)azetidine-3-carboxylic acid]
100 to 1000	O=C(O)[C@H]1[C@@H]2CN(C3CCc4cc(OCc5c(Cl)cccc5Cl)ccc43)C[C@@H]21 (stereo partly drawn) [Compound 22, (1R,5S,6r)-3-(5-((2,6-dichlorobenzyl)oxy)-2,3-dihydro-1H-inden-1-yl)-3-azabicyclo[3.1.0]hexane-6-carboxylic acid]
1 to 10	O=C(O)[C@@H]1[C@@H]2CN(C3CCc4cc(OCc5c(Cl)cccc5Cl)ccc43)C[C@@H]21 (stereo partly drawn) [Compound 23, (1R,5S,6s)-3-(5-((2,6-dichlorobenzyl)oxy)-2,3-dihydro-1H-inden-1-yl)-3-azabicyclo[3.1.0]hexane-6-carboxylic acid]
1 to 10	O=C(O)C1CC2(C1)CN(C1CCc3cc(OCc4c(Cl)cccc4Cl)ccc31)C2 (centres unmarked) [Compound 27, 2-(5-((2,6-dichlorobenzyl)oxy)-2,3-dihydro-1H-inden-1-yl)-2-azaspiro[3.3]heptane-6-carboxylic acid]
10 to 100	CC1(C)CC(C(=O)O)CCN1C1CCc2cc(OCc3c(Cl)cccc3Cl)ccc21 (centres unmarked) [Compound 28, 1-(5-((2,6-dichlorobenzyl)oxy)-2,3-dihydro-1H-inden-1-yl)-2,2-dimethylpiperidine-4-carboxylic acid]
10 to 100	CC1(C(=O)O)CCN(C2CCc3cc(OCc4c(Cl)cccc4Cl)ccc32)CC1 (centres unmarked) [Compound 29, 1-(5-((2,6-dichlorobenzyl)oxy)-2,3-dihydro-1H-inden-1-yl)-4-methylpiperidine-4-carboxylic acid]
